14 cell lines from the supplement of paper PMC10307832 can be followed below.

Compound in the assay “Serdemetan + Foretinib”: c1ccc2c(CCNc3ccc(Nc4ccncc4)cc3)c[nH]c2c1 [Serdemetan] + COc1cc2c(Oc3ccc(NC(=O)C4(C(=O)Nc5ccc(F)cc5)CC4)cc3F)ccnc2cc1OCCCN1CCOCC1 [Foretinib] (partner 0.25 µM)
In words: relative viability (nuclei count vs DMSO), 5 days (fraction); higher = more cells survive. A digest of the protocol: (§1)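 Lung cancer cell lines in 1536-well plates were dosed by pin tool the day after seeding, either with one drug alone or with a fixed anchor-drug dose plus five library-drug doses (not always all listed) in √10 steps. After 5 days, cells were fixed and their nuclei stained in one step (final 0.05% Triton X-100, 1% formaldehyde, 1 ug/ml Hoechst), then counted on 4× images. Relative viability is the nuclei count in treated wells divided by that in vehicle wells. Values are medians of duplicate plates.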

Compound in the assay “Selisistat + Navitoclax”: C1CC(C2=C(C1)C3=C(N2)C=CC(=C3)Cl)C(=O)N [Selisistat] + CC1(C)CCC(c2ccc(Cl)cc2)=C(CN2CCN(c3ccc(C(=O)NS(=O)(=O)c4ccc(N[C@H](CCN5CCOCC5)CSc5ccccc5)c(S(=O)(=O)C(F)(F)F)c4)cc3)CC2)C1 [Navitoclax] (partner 0.5 µM)
Described as above. In outline:
as §1

In the case of NCI-H2342, the relative viability in the assay with Serdemetan + Foretinib (first compound 0.04 µM) was 1.22; in the assay with Serdemetan + Foretinib (first compound 0.1265 µM) it was 1; with Serdemetan + Foretinib (first compound 0.4 µM) it was 0.882; in the assay with Serdemetan + Foretinib (first compound 1.265 µM), 0.504; with Serdemetan + Foretinib (first compound 4 µM), 0.592.

For the cell line SK-MES-1, the relative viability was 0.877 in the assay with Serdemetan + Foretinib (first compound 0.04 µM); 0.915 with Serdemetan + Foretinib (first compound 0.1265 µM); 0.842 in the assay with Serdemetan + Foretinib (first compound 0.4 µM); 0.847 with Serdemetan + Foretinib (first compound 1.265 µM); 0.534 with Serdemetan + Foretinib (first compound 4 µM); 1.29 with Selisistat + Navitoclax (first compound 0.4 µM). The relative viability was determined as 1.14 with Selisistat + Navitoclax (first compound 1.265 µM), 1.4 with Selisistat + Navitoclax (first compound 4 µM), 1.26 with Selisistat + Navitoclax (first compound 12.65 µM) and 1.26 in the assay with Selisistat + Navitoclax (first compound 40 µM).

Turning to HCC-366, the relative viability with Serdemetan + Foretinib (first compound 0.04 µM) is 0.948; in the assay with Serdemetan + Foretinib (first compound 0.1265 µM), 0.812; with Serdemetan + Foretinib (first compound 0.4 µM), 0.197; with Serdemetan + Foretinib (first compound 1.265 µM), 0.073; in the assay with Serdemetan + Foretinib (first compound 4 µM), 0.0559; with Selisistat + Navitoclax (first compound 0.4 µM), 1.15. Further, the relative viability is 0.965 in the assay with Selisistat + Navitoclax (first compound 1.265 µM), 0.89 with Selisistat + Navitoclax (first compound 4 µM), 0.97 with Selisistat + Navitoclax (first compound 12.65 µM) and 1.08 in the assay with Selisistat + Navitoclax (first compound 40 µM).

In the case of 201T, the relative viability came to 1.14 in the assay with Serdemetan + Foretinib (first compound 0.04 µM); 1.13 with Serdemetan + Foretinib (first compound 0.1265 µM); 1.02 in the assay with Serdemetan + Foretinib (first compound 0.4 µM); 0.636 with Serdemetan + Foretinib (first compound 1.265 µM); 0.73 in the assay with Serdemetan + Foretinib (first compound 4 µM); 1.21 in the assay with Selisistat + Navitoclax (first compound 0.4 µM). In addition, the relative viability was found to be 1.17 with Selisistat + Navitoclax (first compound 1.265 µM), 1.16 in the assay with Selisistat + Navitoclax (first compound 4 µM), 1.25 in the assay with Selisistat + Navitoclax (first compound 12.65 µM) and 1.25 in the assay with Selisistat + Navitoclax (first compound 40 µM).

Turning to HCC-827, the relative viability with Serdemetan + Foretinib (first compound 0.04 µM) came to 0.991; with Serdemetan + Foretinib (first compound 0.1265 µM) it was 0.948; in the assay with Serdemetan + Foretinib (first compound 1.265 µM) it was 0.594; with Serdemetan + Foretinib (first compound 4 µM) it was 0.62; in the assay with Selisistat + Navitoclax (first compound 0.4 µM), 1.03; in the assay with Selisistat + Navitoclax (first compound 1.265 µM) it was 0.992. Further, the relative viability with Selisistat + Navitoclax (first compound 4 µM), in the assay with Selisistat + Navitoclax (first compound 12.65 µM) and in the assay with Selisistat + Navitoclax (first compound 40 µM) was 1.01 throughout.

Regarding NCI-H647, the relative viability amounted to 1.2 with Serdemetan + Foretinib (first compound 0.04 µM); 1.15 in the assay with Serdemetan + Foretinib (first compound 0.1265 µM); 1.1 with Serdemetan + Foretinib (first compound 0.4 µM); 1.17 with Serdemetan + Foretinib (first compound 1.265 µM); 0.801 with Serdemetan + Foretinib (first compound 4 µM); 1.11 with Selisistat + Navitoclax (first compound 0.4 µM). Moreover, the results for the relative viability in the assay with Selisistat + Navitoclax (first compound 12.65 µM) and with Selisistat + Navitoclax (first compound 40 µM) were 0.993 and 1.13, respectively.

As to NCI-H2023, the relative viability in the assay with Serdemetan + Foretinib (first compound 0.04 µM) turned out to be 0.804; in the assay with Serdemetan + Foretinib (first compound 0.1265 µM), 0.795; with Serdemetan + Foretinib (first compound 0.4 µM), 0.689; in the assay with Serdemetan + Foretinib (first compound 1.265 µM) it was 0.653; in the assay with Serdemetan + Foretinib (first compound 4 µM) it was 0.267; with Selisistat + Navitoclax (first compound 0.4 µM), 1.03. Also, the relative viability worked out at 0.986 in the assay with Selisistat + Navitoclax (first compound 1.265 µM), 0.989 with Selisistat + Navitoclax (first compound 4 µM), 0.948 in the assay with Selisistat + Navitoclax (first compound 12.65 µM) and 0.92 with Selisistat + Navitoclax (first compound 40 µM).

NCI-H520: the relative viability is 0.668 with Serdemetan + Foretinib (first compound 0.04 µM); 0.737 with Serdemetan + Foretinib (first compound 0.1265 µM); 0.874 in the assay with Serdemetan + Foretinib (first compound 0.4 µM); 0.511 with Serdemetan + Foretinib (first compound 4 µM); 1.06 with Selisistat + Navitoclax (first compound 0.4 µM); 0.959 with Selisistat + Navitoclax (first compound 1.265 µM). Besides, the relative viability with Selisistat + Navitoclax (first compound 4 µM) came to 1.18; with Selisistat + Navitoclax (first compound 12.65 µM), 1.13; in the assay with Selisistat + Navitoclax (first compound 40 µM) it was 1.03.

Regarding RERF-LC-KJ, the relative viability in the assay with Serdemetan + Foretinib (first compound 0.04 µM) was 0.836; with Serdemetan + Foretinib (first compound 0.1265 µM), 0.884; with Serdemetan + Foretinib (first compound 0.4 µM), 0.786; with Serdemetan + Foretinib (first compound 1.265 µM), 0.79; with Serdemetan + Foretinib (first compound 4 µM), 0.887; with Selisistat + Navitoclax (first compound 0.4 µM) it was 0.812. Moreover, the relative viability with Selisistat + Navitoclax (first compound 1.265 µM) was 1.1; with Selisistat + Navitoclax (first compound 4 µM), 0.84; in the assay with Selisistat + Navitoclax (first compound 12.65 µM), 0.702; with Selisistat + Navitoclax (first compound 40 µM), 0.627.

For the cell line A-427, the relative viability with Serdemetan + Foretinib (first compound 0.04 µM) came out at 1.01; with Serdemetan + Foretinib (first compound 0.1265 µM), 0.933; with Serdemetan + Foretinib (first compound 0.4 µM) it was 1.1; with Serdemetan + Foretinib (first compound 1.265 µM), 0.778; with Serdemetan + Foretinib (first compound 4 µM), 0.469; with Selisistat + Navitoclax (first compound 0.4 µM), 0.98. For the same cell line, the relative viability with Selisistat + Navitoclax (first compound 1.265 µM) worked out at 0.986; with Selisistat + Navitoclax (first compound 4 µM), 1.04; in the assay with Selisistat + Navitoclax (first compound 12.65 µM) it was 0.878; in the assay with Selisistat + Navitoclax (first compound 40 µM), 1.11.

For the cell line NCI-H441, the relative viability in the assay with Serdemetan + Foretinib (first compound 0.04 µM) turned out to be 1.05; in the assay with Serdemetan + Foretinib (first compound 0.1265 µM) it was 0.918; in the assay with Serdemetan + Foretinib (first compound 0.4 µM), 0.981; with Serdemetan + Foretinib (first compound 1.265 µM) it was 0.99; with Serdemetan + Foretinib (first compound 4 µM), 0.872; with Selisistat + Navitoclax (first compound 0.4 µM), 0.608. Besides, the relative viability is 0.619 in the assay with Selisistat + Navitoclax (first compound 1.265 µM), 0.697 with Selisistat + Navitoclax (first compound 12.65 µM) and 0.626 with Selisistat + Navitoclax (first compound 40 µM).

Regarding NCI-H1703, the relative viability is 0.335 with Serdemetan + Foretinib (first compound 0.04 µM); 0.338 with Serdemetan + Foretinib (first compound 0.1265 µM); 0.383 with Serdemetan + Foretinib (first compound 0.4 µM); 0.289 with Serdemetan + Foretinib (first compound 1.265 µM); 0.341 in the assay with Serdemetan + Foretinib (first compound 4 µM); 1.24 in the assay with Selisistat + Navitoclax (first compound 0.4 µM). The relative viability in the assay with Selisistat + Navitoclax (first compound 1.265 µM) was determined as 1.15; with Selisistat + Navitoclax (first compound 4 µM) it was 1.25; with Selisistat + Navitoclax (first compound 12.65 µM) it was 1.42; in the assay with Selisistat + Navitoclax (first compound 40 µM) it was 1.27.

On to NCI-H1792, for which the relative viability in the assay with Selisistat + Navitoclax (first compound 0.4 µM) stood at 0.609; with Selisistat + Navitoclax (first compound 1.265 µM) it was 0.611; with Selisistat + Navitoclax (first compound 12.65 µM), 0.629; in the assay with Selisistat + Navitoclax (first compound 40 µM), 0.594.

Take Calu-6: the relative viability stood at 0.866 in the assay with Serdemetan + Foretinib (first compound 0.04 µM); 0.819 with Serdemetan + Foretinib (first compound 0.1265 µM); 0.839 with Serdemetan + Foretinib (first compound 0.4 µM); 0.567 with Serdemetan + Foretinib (first compound 1.265 µM); 0.472 in the assay with Serdemetan + Foretinib (first compound 4 µM); 0.832 with Selisistat + Navitoclax (first compound 0.4 µM). In addition, the relative viability in the assay with Selisistat + Navitoclax (first compound 1.265 µM) came to 0.779; in the assay with Selisistat + Navitoclax (first compound 4 µM), 0.84; with Selisistat + Navitoclax (first compound 12.65 µM) it was 0.82; with Selisistat + Navitoclax (first compound 40 µM), 0.789.
